Experimental data from patent EP2435433B1, “(DIHYDRO)IMIDAZOISO[5,1-A]QUINOLINES AS FSH RECEPTOR AGONISTS FOR THE TREATMENT OF FERTILITY DISORDERS” (Merck Sharp & Dohme B.V., priority 2009, dated 2010).

These molecules were tested against T1, human FSH receptor (Homo sapiens, UniProt P23945) (assay: Agonistic activity of compounds at the human FSH receptor expressed in CHO cells, CRE/luciferase reporter (hFSHRago (CHO luc))). Conditions: CHO cells stably transfected with the human FSH receptor and CRE/firefly luciferase reporter; 4 hours of incubation; half-maximal stimulation relative to the compound's own maximal effect; read-out: hFSHRago (CHO luc) EC50.
T1 construct: expressed in transfected cells; host or cells: Chinese Hamster Ovary (CHO) cells, stably transfected, cotransfected with CRE/promotor-firefly luciferase reporter
T1 sequence (P23945 18-695): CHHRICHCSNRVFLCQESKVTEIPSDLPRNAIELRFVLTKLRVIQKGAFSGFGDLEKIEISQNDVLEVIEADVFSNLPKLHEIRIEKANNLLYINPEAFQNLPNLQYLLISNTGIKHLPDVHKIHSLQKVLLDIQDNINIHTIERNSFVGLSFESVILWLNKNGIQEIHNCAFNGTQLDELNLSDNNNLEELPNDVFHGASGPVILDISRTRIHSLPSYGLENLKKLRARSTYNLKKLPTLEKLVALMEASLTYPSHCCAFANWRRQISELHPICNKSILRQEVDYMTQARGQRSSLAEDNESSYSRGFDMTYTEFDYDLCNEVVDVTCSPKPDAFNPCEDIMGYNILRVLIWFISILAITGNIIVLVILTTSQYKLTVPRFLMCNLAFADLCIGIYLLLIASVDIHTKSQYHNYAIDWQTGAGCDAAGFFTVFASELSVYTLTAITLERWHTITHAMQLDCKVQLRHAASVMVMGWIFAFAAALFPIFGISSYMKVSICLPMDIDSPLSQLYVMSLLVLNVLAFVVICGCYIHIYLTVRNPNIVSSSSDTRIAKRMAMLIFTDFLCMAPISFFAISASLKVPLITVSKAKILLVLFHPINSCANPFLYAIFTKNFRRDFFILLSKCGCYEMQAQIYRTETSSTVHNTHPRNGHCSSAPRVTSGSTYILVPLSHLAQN
Assay type: cell-based
Description: The term EC50 means the concentration of the test compound that elicits half-maximal (50 %) stimulation compared to the compound's maximally attainable effect. The values can be determined e.g. in a cell line transfected with a FSH receptor gene and cotransfected with a cAMP responsive element/promoter directing the expression of a reporter gene. Values can be determined using a software program such as MathIQ (version 2.0, ID Business Solutions Limited).
Agonistic activity of the compounds at the human FSH receptor was determined in Chinese Hamster Ovary (CHO) cells stably transfected with the human FSH receptor and cotransfected with a cAMP responsive element (CRE)/promotor directing the expression of a firefly luciferase reporter gene. Binding of the compounds to the Gs protein-coupled FSH receptor will result in an increase of cAMP, which in turn will induce an increased transactivation of the luciferase reporter. Cells (7,500 cells/well of a 384 well plate) were incubated in Dulbecco' minimal essential F12 modified medium (Invitrogen), supplemented with 1 µg/ml bovine insulin, 5 µg/ml human apo-transferrin, 80 U/ml penicillin G and 80 µg/ml streptomycin with the test compounds (concentration between 0.0316 nM and 10.0 µM) in duplicate in a humidified atmosphere (95%) at 5-7% CO2 and 37°C. The final concentration of DMSO was 1%. After 4 hours of incubation, plates were allowed to adjust to room temperature for 1 hour. Then, Luclite (PerkinElmer) solution was added to the wells and cells were allowed to lyse for at least 1 hour at room temperature. Subsequently, luciferase activity was measured in a luminescence counter. The signal is expressed as counts per second (cps). The EC50 (concentration of the test compound that elicits half-maximal (50 %) luciferase stimulation compared to the compound's maximally attainable effect) and efficacy values (maximal effect of the test compound as percentage of the maximal effect of recombinant human FSH) of the compounds were determined using the software program MathIQ (version 2.0, ID Business Solutions Limited). EC50 data are indicated at the synthesis examples.

EC50	SMILES
740 nM	COc1cc2c(cc1N)-c1c(-c3cccs3)nc(C(=O)N(C)C(C)(C)C)n1CC2 [Example 6b, 9-Amino-8-methoxy-1-thiophen-2-yl-5,6-dihydro-imidazo[5,1-a]isoquinoline-3-carboxylic acid tert-butyl-methyl-amide]
35 nM	COc1cc2c(cc1NC(=O)C(C)O)-c1c(-c3cccs3)nc(C(=O)N(C)C(C)(C)C)n1CC2 (centres unmarked) [Example 7, 9-(2-Hydroxy-propionylamino)-8-methoxy-1-thiophen-2-yl-5,6-dihydro-imidazo[5,1-a]isoquinoline-3-carboxylic acid tert-butyl-methyl-amide]
49 nM	COc1cc2c(cc1NC(=O)[C@H](C)N)-c1c(-c3cccs3)nc(C(=O)N(C)C(C)(C)C)n1CC2 [Example 8, 9-((S)-2-Amino-propionylamino)-8-methoxy-1-thiophen-2-yl-5,6-dihydro-imidazo[5,1-a]isoquinoline-3-carboxylic acid tert-butyl-methyl-amide]
224 nM	COc1cc2c(cc1NC(=O)c1cccnc1)-c1c(-c3cccs3)nc(C(=O)N(C)C(C)(C)C)n1CC2 [Example 9, 8-Methoxy-9-[(pyridine-3-carbonyl)-amino]-1-thiophen-2-yl-5,6-dihydro-imidazo[5,1-a]isoquinoline-3-carboxylic acid tert-buyl-methyl-amide]
12 nM	COc1cc2c(cc1NC(=O)c1nccs1)-c1c(-c3cccs3)nc(C(=O)N(C)C(C)(C)C)n1CC2 [Example 10, 8-Methoxy-9-[(thiazole-2-carbonyl)-amino]-1-thiophen-2-yl-5,6-dihydro-imidazo[5,1-a]isoquinoline-3-carboxylic acid tert-butyl-methyl-amide]
13 nM	COc1cc2c(cc1NC(=O)c1cscn1)-c1c(-c3cccs3)nc(C(=O)N(C)C(C)(C)C)n1CC2 [Example 11, 8-Methoxy-9-[(thiazole-4-carbonyl)-amino]-1-thiophen-2-yl-5,6-dihydro-imidazo[5,1-a]isoquinoline-3-carboxylic acid tert-butyl-methyl-amide]
15 nM	COc1cc2c(cc1NC(=O)c1csnn1)-c1c(-c3cccs3)nc(C(=O)N(C)C(C)(C)C)n1CC2 [Example 12, 8-Methoxy-9-[([1,2,3]thiadiazole-4-carbonyl)-amino]-1-thiophen-2-yl-5,6-dihydro-imidazo[5,1-a]isoquinoline-3-carboxylic acid tert-butyl-methyl-amide]
26 nM	CCN(C)CC(=O)Nc1cc2c(cc1OC)CCn1c(C(=O)N(C)C(C)(C)C)nc(-c3cccs3)c1-2 [Example 13b, 9-[2-(Ethyl-methyl-amino)-acetylamino]-8-methoxy-1-thiophen-2-yl-5,6-dihydro-imidazo[5,1-a]isoquinoline-3-carboxylic acid tert-butyl-methyl-amide]
10 nM	COc1cc2c(cc1NC(=O)CN1CCOCC1)-c1c(-c3cccs3)nc(C(=O)N(C)C(C)(C)C)n1CC2 [Example 14, 8-Methoxy-9-(2-morpholin-4-yl-acetylamino)-1-thiophen-2-yl-5,6-dihydro-imidazo[5,1-a]isoquinoline-3-carboxylic acid tert-butyl-methyl-amide]
9 nM	COc1cc2ccn3c(C(=O)N(C)C(C)(C)C)nc(-c4cccs4)c3c2cc1C=C(C)C [Example 16e, 8-Methoxy-9-(2-methyl-propenyl)-1-thiophen-2-yl-imidazo[5,1-a]isoquinoline-3-carboxylic acid tert-butyl-methyl-amide]
23 nM	COc1cc2ccn3c(C(=O)N(C)C(C)(C)C)nc(-c4cccs4)c3c2cc1-c1cnn(C)c1 [Example 17b, 8-Methoxy-9-(1-methyl-1H-pyrazol-4-yl)-1-thiophen-2-yl-imidazo[5,1-a]isoquinoline-3-carboxylic acid tert-butyl-methyl-amide]
8 nM	COc1cc2c(cc1CC(C)C)-c1c(-c3cccs3)nc(C(=O)N(C)C(C)(C)C)n1CC2 [Example 18k, 9-Isobutyl-8-methoxy-1-thiophen-2-yl-5,6-dihydro-imidazo[5,1-a]isoquinoline-3-carboxylic acid tert-butyl-methyl-amide]
76 nM	C=Cc1cc2c(cc1CC(C)C)-c1c(-c3cccs3)nc(C(=O)N(C)C(C)(C)C)n1CC2 [Example 19d, 9-Isobutyl-1-thiophen-2-yl-8-vinyl-5,6-dihydro-imidazo[5,1-a]isoquinoline-3-carboxylic acid tert-butyl-methyl-amide]
200 nM	CCc1cc2c(cc1CC(C)C)-c1c(-c3cccs3)nc(C(=O)N(C)C(C)(C)C)n1CC2 [Example 19e, 8-Ethyl-9-isobutyl-1-thiophen-2-yl-5,6-dihydro-imidazo[5,1-a]isoquinoline-3-carboxylic acid tert-butyl-methyl-amide]
407 nM	CC(C)Cc1ccc2c(c1)-c1c(-c3cccs3)nc(C(=O)N(C)C(C)(C)C)n1CC2 [Example 20b, 9-Isobutyl-1-thiophen-2-yl-5,6-dihydro-imidazo[5,1-a]isoquinoline-3-carboxylic acid tert-butyl-methyl-amide]
0.9 nM	CCN(C(=O)c1nc(-c2cccs2)c2n1CCc1cc(OC)c(OC(C)C)cc1-2)C(C)(C)C [Example 21f, 9-Isopropoxy-8-methoxy-1-thiophen-2-yl-5,6-dihydro-imidazo[5,1-a]isoquinoline-3-carboxylic acid tert-butyl-ethyl-amide]
3 nM	COc1cc2c(cc1OC(C)C)-c1c(-c3cccs3)nc(C(=O)N3CCCC3(C)C)n1CC2 [Example 22, (2,2-Dimethyl-pyrrolidin-1-yl)-(9-isopropoxy-8-methoxy-1-thiophen-2-yl-5,6-dihydro-imidazo[5,1-a]isoquinolin-3-yl)-methanone]
63 nM	CCC1CCCN1C(=O)c1nc(-c2cccs2)c2n1CCc1cc(OC)c(OC(C)C)cc1-2 (centres unmarked) [Example 23, (2-Ethyl-pyrrolidin-1-yl)-(9-isopropoxy-8-methoxy-1-thiophen-2-yl-5,6-dihydro-imidazo[5,1-a]isoquinolin-3-yl)-methanone]
333 nM	COc1cc2c(cc1OC)-c1c(-c3cccs3)nc(C(=O)N3CCCC3C)n1CC2 (centres unmarked) [Example 24c, (2-Methyl-pyrrolidin-1-yl)-(9-methoxy-8-methoxy-1-thiophen-2-yl-5,6-dihydro-imidazo[5,1-a]isoquinolin-3-yl)-methanone]
138 nM	COc1cc2c(cc1OC)-c1c(-c3cccs3)nc(C(=O)N(CCO)C(C)C)n1CC2 [Example 25, 8,9-Dimethoxy-1-thiophen-2-yl-5,6-dihydro-imidazo[5,1-a]isoquinoline-3-carboxylic acid (2-hydroxy-ethyl)-isopropyl-amide]
314 nM	COc1cc2c(cc1OC)-c1c(-c3cccs3)nc(C(=O)N3CCCOCC3)n1CC2 [Example 26, (8,9-Dimethoxy-1-thiophen-2-yl-5,6-dihydro-imidazo[5,1-a]isoquinolin-3-yl)-[1,4]oxazepan-4-yl-methanone]
21 nM	COc1cc2c(cc1OC(C)C)-c1c(-c3cccs3)nc(C(=O)N3CC4CC(CN(C(C)=O)C4)C3)n1CC2 [Example 29c, 1-[7-(9-Isopropoxy-8-methoxy-1-thiophen-2-yl-5,6-dihydro-imidazo[5,1-a]isoquinoline-3-carbonyl)-3,7-diaza-bicyclo[3.3.1]non-3-yl]-ethanone]
5 nM	COc1cc2c(cc1OC(C)C)-c1c(-c3cccs3)nc(C(=O)N3CC4CC(C3)CN(C(=O)C3CCC3)C4)n1CC2 [Example 29d, (7-Cyclobutanecarbonyl-3,7-diaza-bicyclo[3.3.1]non-3-yl)-(9-isopropoxy-8-methoxy-1-thiophen-2-yl-5,6-dihydro-imidazo[5,1-a]isoquinolin-3-yl)-methanone]
